Test results taken from US5043328A, “Formulations containing unsaturated fatty acids for the synthesis of prostaglandins and hydroxy-fatty acids in biological systems” (priority 1986, dated 1991).
Like-named read-outs stand apart in the source and are kept apart here. No end group written: not given here.

Target: T1, enzyme (from seminal vesicles of sheep) (Ovis aries, UniProt P05979)
T1 sequence (P05979 25-600): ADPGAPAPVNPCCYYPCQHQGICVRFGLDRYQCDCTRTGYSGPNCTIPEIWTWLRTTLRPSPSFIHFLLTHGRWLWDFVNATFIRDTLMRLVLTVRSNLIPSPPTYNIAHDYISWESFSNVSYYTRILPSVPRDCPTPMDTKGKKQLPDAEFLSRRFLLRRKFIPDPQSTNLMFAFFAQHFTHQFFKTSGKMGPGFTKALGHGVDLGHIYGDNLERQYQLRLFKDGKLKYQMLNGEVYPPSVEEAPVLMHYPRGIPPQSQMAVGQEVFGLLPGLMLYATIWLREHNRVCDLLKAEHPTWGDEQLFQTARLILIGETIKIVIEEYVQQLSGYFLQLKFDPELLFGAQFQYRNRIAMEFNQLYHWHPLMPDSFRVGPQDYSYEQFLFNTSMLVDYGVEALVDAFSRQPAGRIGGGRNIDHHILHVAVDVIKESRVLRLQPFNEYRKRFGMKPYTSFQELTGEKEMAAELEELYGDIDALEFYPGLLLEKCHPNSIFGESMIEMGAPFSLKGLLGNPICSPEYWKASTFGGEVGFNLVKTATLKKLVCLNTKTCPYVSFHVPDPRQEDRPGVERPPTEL
Settings: for stimulation of prostaglandin synthesis with much smaller quantities of undesired byproducts: mixtures with polyunsaturated fatty acids such as arachidonic acid
Protocol: Method 2: Prostaglandin Synthesis
0.3 ml of 0.03M potassium phosphate buffer of pH=8.0 contains 0.5 mg of enzyme (from seminal vesicles of sheep) (Biochemistry 10 (1971) 2372) or homogenate of the inner kidney medulla (Life Sciences 26 (1980) 765), 2.75 μg of ^14 C-arachidonic acid (0.5 μCi) and 0.5 mg of stimulator, and, if appropriate, 0.5 mg of stabilizer substance (see Table 1). After 10 minutes' incubation at 37° C., the reaction is stopped with 0.05 ml of 1.2M citric acid and the mixture is extracted with twice 0.5 ml of ethyl acetate, the combined extracts are freed of solvent, and the residue is dissolved in 0.2 ml of methanol, diluted 1:1 with water and separated by HPLC (nucleosil C-18 column, 125×4.6 mm, from Bischoff, Leonberg, Germany, solvent 300 ml of acetonitrile, 700 ml of water and 1 ml of glacial acetic acid and after 30 minutes pure methanol). The separation of the radioactive fractions is followed by a monitor (LB 504 from Berthold, Wildbad, Germany). The products formed, such as 6-keto-prostaglandin F2alpha, prostaglandin E2, prostaglandin F2alpha and prostaglandin D2, are separated under these conditions.
The prostaglandins PGE2, PGF2 alpha and PGD2 as products from arachidonic acid where quantified by means of method 2, and the sum was related as "total prostaglandin" to 100%. The quantity of "total prostaglandin" formed without the addition of a stimulator was set at f=1; the quantity formed after stimulation was related thereto. f=2 or f=3 therefore means twice or three times the stimulation under the conditions of method 2. The stability of the sample was investigated by means of method 1 (right-hand column). […] Values greater than 25-28% therefore represent a stabilization, and values smaller than 25-28% represent a destabilization. Example No. 1 was carried out without a stimulator. […] The substances test with respect to stabilization (see Method 1 for quantities) were: A) aqueous solution without stabilizer addition, B) ethanolic solution without further addition, C) pyridine solution, D) with rutin, predissolved in dimethyl sulfoxide, dimethyl sulfoxide then stripped off, E) like B) with lecithin, ethanol stripped off, F) like A) with cytochrome c from horse heart (from Boehringer, Mannheim, Germany), G) like A) with methemoglobin (human) (from Sigman, Munich, Germany), H) like A) with bovine serum albumin (from Calbiochem, Frankfurt, Germany), J) like A) or B), but solvent stripped off, K) like J) with cytochrome c, L) like J) with hemoglobin (human) (from Behringwerke, Marburg, Germany), and M) like J) with human serum albumin (from Behringwerke, Marburg, Germany).

[1] = Table 1, share of total prostaglandin (=100%)
[2] = Table 1, 0.5 mg stimulator, 10 min 37° C., without stimulator f=1
[3] = seminal vesicle enzyme, 10 min, pH 8
[4] = Table 2, share of total prostaglandin

O=C(O)CCc1c[nH]c2ccccc12 [Example 20]
PGD2 % [1]: 16% | PGE2 % [1]: 82% | PGF2alpha % [1]: 2%

LeuTrpMet [Example 29]
relative total prostaglandin f [2]: 10.8 | PGD2 % [1]: 22% | PGE2 % [1]: 69% | PGF2alpha % [1]: 9%

YCEHFRWG [Example 38]
Stimulation (Table 1, result in words): positive

NCC(O)c1ccc(O)c(O)c1 (stereo not shown) [Example 12]
PGD2 % [1]: 17% | PGE2 % [1]: 66% | PGF2alpha % [1]: 17% | relative total prostaglandin f [3]: 8.3

TrpTrp [Example 24]
relative total prostaglandin f [2]: 11.7 | PGD2 % [1]: 23% | PGE2 % [1]: 75% | PGF2alpha % [1]: 2%

CC(C)(CO)[C@@H](O)C(=O)NCCC(=O)NCCS [Example 46, Pantetheine, reference compound]
stimulation of prostaglandin synthesis with much smaller quantities of undesired byproducts (result in words): not possible to achieve these advantageous effects | relative total prostaglandin f [3]: 0.95

O=C(O)CCc1ccc(O)cc1 [Example 8]
PGD2 % [1]: 16% | PGE2 % [1]: 83% | PGF2alpha % [1]: 1%

NC(Cc1c[nH]c2ccc(O)cc12)C(=O)O (stereo not shown) [Example 19]
PGD2 % [1]: 18% | PGE2 % [1]: 79% | PGF2alpha % [1]: 3% | relative total prostaglandin f [3]: 10.1

O=c1c(O)c(-c2ccc(O)c(O)c2)oc2cc(O)cc(O)c12 [Example 57, Quercetin]
PGD2 % [4]: 10% | PGE2 % [4]: 72% | PGF2alpha % [4]: 18% | relative total prostaglandin f [3]: 0.3

N[C@@H](CCS)C(=O)O [homocysteine]
stimulation of prostaglandin synthesis with much smaller quantities of undesired byproducts (result in words): stimulated

N[C@H](CS)C(=O)O [Example 34, D-cysteine]
PGD2 % [1]: 23% | PGE2 % [1]: 63% | PGF2alpha % [1]: 14%

CC(=O)NC(CS)C(=O)O (stereo not shown) [Example 37, NAcetylcysteine]
PGD2 % [1]: 25% | PGE2 % [1]: 61% | PGF2alpha % [1]: 14%

NCCc1ccc(O)cc1 [Example 7]
PGD2 % [1]: 17% | PGE2 % [1]: 80% | PGF2alpha % [1]: 3% | relative total prostaglandin f [3]: 4,0

Oc1ccc(O)cc1 [Example 14]
PGD2 % [1]: 19% | PGE2 % [1]: 69% | PGF2alpha % [1]: 12%

NCCS [Example 43, Cysteamine, reference compound]
stimulation of prostaglandin synthesis with much smaller quantities of undesired byproducts (result in words): not possible to achieve these advantageous effects | relative total prostaglandin f [3]: 0.9

N[C@@H](Cc1ccccc1)C(=O)O [Example 4, L-phenylalanine, reference compound]
PGD2 % [1]: 18% | PGE2 % [1]: 80% | PGF2alpha % [1]: 2%

COc1cc(C(=O)O)ccc1O [Example 15]
PGD2 % [1]: 17% | PGE2 % [1]: 71% | PGF2alpha % [1]: 12%

O=C(O)c1ccc(O)cc1 [Example 16]
PGD2 % [1]: 18% | PGE2 % [1]: 69% | PGF2alpha % [1]: 13%

Cc1cccc(O)c1 [Example 2, m-cresol, reference compound]
PGD2 % [1]: 2% | PGE2 % [1]: 98% | PGF2alpha % [1]: 0%

C[C@@H]1O[C@@H](OC[C@H]2O[C@@H](Oc3c(-c4ccc(O)c(O)c4)oc4cc(O)cc(O)c4c3=O)[C@H](O)[C@@H](O)[C@@H]2O)[C@H](O)[C@H](O)[C@H]1O [Example 52, Rutin]
PGD2 % [4]: 18% | PGE2 % [4]: 76% | PGF2alpha % [4]: 6% | relative total prostaglandin f [3]: 6

TyrTrp [Example 31]
relative total prostaglandin f [2]: 6.3 | PGD2 % [1]: 14% | PGE2 % [1]: 73% | PGF2alpha % [1]: 3%

O[C@H](CS)[C@H](O)CS [Example 39, Dithiothreitol, reference compound]
stimulation of prostaglandin synthesis with much smaller quantities of undesired byproducts (result in words): not possible to achieve these advantageous effects | relative total prostaglandin f [3]: 0.8

LeuTrp [Example 27]
relative total prostaglandin f [2]: 17.0 | PGD2 % [1]: 22% | PGE2 % [1]: 77% | PGF2alpha % [1]: 1%

TrpAla [Example 26]
relative total prostaglandin f [2]: 12.6 | PGD2 % [1]: 22% | PGE2 % [1]: 77% | PGF2alpha % [1]: 1%

NC(Cc1c[nH]c2ccccc12)C(=O)O (stereo not shown) [Example 18]
PGD2 % [1]: 21% | PGE2 % [1]: 76% | PGF2alpha % [1]: 3% | relative total prostaglandin f [3]: 9.8

CNCC(O)c1ccc(O)c(O)c1 (stereo not shown) [Example 13]
PGD2 % [1]: 18% | PGE2 % [1]: 70% | PGF2alpha % [1]: 12%

O=C(O)CCCC[C@@H](S)CCS (racemic) [Example 42, Dihydrolipoic acid, reference compound]
stimulation of prostaglandin synthesis with much smaller quantities of undesired byproducts (result in words): not possible to achieve these advantageous effects | relative total prostaglandin f [3]: 1.0

CC(C)(COP(=O)(O)OP(=O)(O)OC[C@H]1O[C@@H](n2cnc3c(N)ncnc32)[C@H](O)[C@@H]1OP(=O)(O)O)[C@@H](O)C(=O)NCCC(=O)NCCS [Example 45, Coenzyme A, reference compound]
stimulation of prostaglandin synthesis with much smaller quantities of undesired byproducts (result in words): not possible to achieve these advantageous effects | relative total prostaglandin f [3]: 1.0

O=C(CCc1ccc(O)cc1)c1c(O)cc(O)cc1O [Example 60, Phloretin]
PGD2 % [4]: 13% | PGE2 % [4]: 76% | PGF2alpha % [4]: 11%

Oc1ccccc1 [Example 3, phenol, reference compound]
PGD2 % [1]: 18% | PGE2 % [1]: 77% | PGF2alpha % [1]: 5%

Oc1cc(O)c2c(c1)OC(c1ccc(O)c(O)c1)C(O)C2 (stereo not shown) [Example 58, Catechin]
PGD2 % [4]: 12% | PGE2 % [4]: 70% | PGF2alpha % [4]: 18%

CC1=C(C)C(=O)C(CC[C@](C)(O)CCC[C@H](C)CCC[C@H](C)CCCC(C)C)=C(C)C1=O [Example 51, D-alpha-Tocopheryl-quinone]
PGD2 % [4]: 15% | PGE2 % [4]: 80% | PGF2alpha % [4]: 5%

O[C@H](CS)[C@@H](O)CS [Example 40, Dithioerythritol, reference compound]
stimulation of prostaglandin synthesis with much smaller quantities of undesired byproducts (result in words): not possible to achieve these advantageous effects | relative total prostaglandin f [3]: 0.85

TyrTyrTyrOCH3 [Example 30]
relative total prostaglandin f [2]: 5.3 | PGD2 % [1]: 11% | PGE2 % [1]: 75% | PGF2alpha % [1]: 4%

N[C@@H](CSSC[C@H](N)C(=O)O)C(=O)O [Example 41, Cystine, reference compound]
PGD2 % [1]: 15% | PGE2 % [1]: 85% | PGF2alpha % [1]: 0% | stimulation of prostaglandin synthesis with much smaller quantities of undesired byproducts (result in words): not possible to achieve these advantageous effects | relative total prostaglandin f [3]: 1.0

O=c1c(O)c(-c2ccc(O)cc2O)oc2cc(O)cc(O)c12 [Example 61, Morin]
PGD2 % [4]: 19% | PGE2 % [4]: 54% | PGF2alpha % [4]: 27%

NC(Cc1ccc(O)c(O)c1)C(=O)O (stereo not shown) [Example 9]
PGD2 % [1]: 16% | PGE2 % [1]: 70% | PGF2alpha % [1]: 14% | relative total prostaglandin f [3]: 9.4

N[C@@H](CS)C(=O)O [cysteine]
stimulation of prostaglandin synthesis with much smaller quantities of undesired byproducts (result in words): stimulated

GlyTrpGly [Example 25]
relative total prostaglandin f [2]: 13.0 | PGD2 % [1]: 20% | PGE2 % [1]: 79% | PGF2alpha % [1]: 1%
